Reference: PMC5393024, “Discovery and characterization of natural tropolones as inhibitors of the antibacterial target CapF from Staphylococcus aureus” (Scientific Reports, 2015)
Read-outs that look alike come from different tables or passages of the source.

How the values were obtained:
[1] = target: holo-CapF (reconstituted with Zn^2+) (Staphylococcus aureus, UniProt A0A0H3JP37); test: ITC binding to CapF reconstituted with Zn2+ (holo-CapF)
From the text: Because tropolone and its analogs have been described as metal chelators in proteins, we anticipated that binding of the inhibitor to CapF is governed by the Zn^2+ ion present in the cupin domain[12]. To confirm this hypothesis, we performed two different types of experiments. First, we determined the binding properties of 3-isopropenyl-tropolone to apo-CapF (i.e. Zn^2+-depleted CapF) and to holo-CapF (reconstituted with Zn^2+) by isothermal titration calorimetry (ITC). The stoichiometry is consistent with a 1:1 binding model.
Figure 3 Binding of 3-isopropenyl-tropolone to CapF requires Zn^2+. CapF (150 μM) reconstituted with Zn^2+ was titrated with 1.65 mM inhibitor in the absence (a) or the presence (b) of 1 mM EDTA. The upper panels correspond to the titration data, and the lower panels to the integrated binding isotherms. (c) Binding competition assay. CapF (1.0 μM) reconstituted with Zn^2+ in the presence of the Zn^2+-sensitive dye FluoZin-3 (1.0 μM) was titrated with 3-isopropenyl-tropolone (λEX = 490 nm; λEM = 520 nm).
Binding constants and thermodynamic parameters of the interaction between CapF and fragment compounds were determined with an iTC200 instrument (GE Healthcare) at 25 °C. Samples were equilibrated in a buffer composed of 10 mM HEPES (pH 7.4) and 150 mM NaCl supplemented with 5% (v/v) DMSO. CapF at 150–270 μM was titrated with compounds at 0.5–1.65 mM. Analysis of the data was performed with ORIGIN7 using a one-site binding model.
Figure S8. Binding isotherms of compounds with CapF as determined by ITC. (a) tropone, (b) 2-Cl-tropone, (c) tropolone, (d) 4-isopropyl-tropolone. Concentration of CapF in the cell was 150 µM, except in panel (a) where it was 270 µM. Concentration of compounds was 1.65 mM, except in panel (a) where it was 0.5 mM. Titrations were performed in an iTC200 instrument at 25 °C.
Data analysis was carried out with ORIGIN.

CapF [2] = test: NADPH consumption assay (absorbance at 340 nm); type: biochemical, Staphylococcus aureus; conditions: 0.02 μM CapF, 1.0 μM CapE, 125 μM UDP-D-GlcNAc, 250 μM NADPH, 37 °C
Procedure: A second assay monitoring the consumption of NADPH corroborates the inhibitory effect of 3-isopropenyl-tropolone (Fig. 2c). This assay is sensitive to the NADPH consumed by the SDR domain during the second reaction catalyzed by CapF (reduction step). […] Nevertheless, additional experiments were required to corroborate that idea (see below).
The enzymatic performance of CapF was evaluated by examining the consumption of NADPH spectrophotometrically, or by monitoring the disappearance of substrate and the formation of product by HPLC[9][12]. First, the time-dependent consumption of NADPH (monitored from a decrease of adsorption at 340 nm) was carried out in 384-well plates at a final volume of 50 μL. The solution contained 1.0 μM CapE, 0.02 μM CapF, 125 μM UDP-D-GlcNAc (substrate), 250 μM NADPH and fragment compounds at various concentrations in HBS supplemented with 0.005% (v/v) Tween-20 and 5% (v/v) DMSO. Each reaction mixture was incubated at 37 °C and the absorption at 340 nm was measured with a plate reader (PHERAstar, BMG Labtech, Durham, NC).
Figure S7. (a) Structure of compounds employed. (b-d) Time course of NADPH consumption by CapF in the presence of (b) tropolone, (c) 4-isopropyl-tropolone, and (d) 2-Cl-tropone. Increasing the concentration of compounds decreases the rate of consumption of NADPH. (e-g) Inhibition after two hours for (e) tropolone, (f) 4-isopropyl-tropolone, and (g) 2-Cl-tropone. Concentration of CapE and CapF was 1.0 µM and 0.02 µM, respectively. Concentration of NADPH and UDP-D-GlcNAc was 250 µM and 125 µM, respectively. The change of absorbance was calculated with respect to a control assay in the absence of CapF.
(1 picture or pasted object on this page, not shown here)

CapF [3] = conditions: cited from earlier work

holo-CapF (reconstituted with Zn^2+), sequence (A0A0H3JP37 entry or part of it): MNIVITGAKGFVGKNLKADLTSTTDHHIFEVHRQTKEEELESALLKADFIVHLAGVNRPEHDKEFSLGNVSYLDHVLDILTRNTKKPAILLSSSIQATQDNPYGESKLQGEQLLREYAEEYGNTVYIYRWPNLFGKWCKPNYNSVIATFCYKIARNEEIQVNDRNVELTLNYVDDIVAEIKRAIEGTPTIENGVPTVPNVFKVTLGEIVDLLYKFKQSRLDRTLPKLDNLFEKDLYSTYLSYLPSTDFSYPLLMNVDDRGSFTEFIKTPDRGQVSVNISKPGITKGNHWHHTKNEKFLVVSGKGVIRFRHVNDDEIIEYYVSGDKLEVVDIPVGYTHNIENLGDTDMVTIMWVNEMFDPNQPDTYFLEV

**Q.** Which “binding to CapF by ITC” value ([1]; ITC, 25 °C) does the source give for `O=c1cccccc1Cl` [2-Cl-tropone] here?
**A.** not detected

**Q.** And the “inhibition of NADPH consumption” value (CapF [2])?
**A.** did not significantly inhibit

**Q.** Which results are given for `CC(C)c1cccc(=O)c(O)c1` [4-isopropyl-tropolone]?
**A.** Kd ([1]; ITC, 25 °C, 10 mM HEPES pH 7.4, 150 mM NaCl, 5% DMSO, one-site model, read-out: KD): 1800 µM; Kd ([1]; ITC, 25 °C, read-out: KD): 1800 µM; n (binding stoichiometry) ([1]; ITC, stoichiometry was fixed to n = 1 in the fit): 1.0; inhibition of NADPH consumption (CapF [2]): inhibited the consumption of NADPH in a concentration-dependent basis

**Q.** With `O=c1cccccc1O` [tropolone] as the molecule, how does the Kd [1] read?
**A.** 38 ± 7 µM

**Q.** And the “n (binding stoichiometry)” value ([1]; ITC, 25 °C)?
**A.** 1.1 ± 0.2

**Q.** What about the “ΔH°” value ([1]; ITC, 25 °C) of the same molecule?
**A.** -2.9 ± 0.8 kcal/mol

**Q.** And the “−TΔS°” value ([1]; ITC, 25 °C)?
**A.** -3.2 ± 1.0 kcal/mol

**Q.** What about the “ligand efficiency (LE = −ΔG/HAC)” value ([1]; from ITC binding free energy) of the same molecule?
**A.** 0.67 kcal/mol

**Q.** What about the “inhibition of NADPH consumption” value (CapF [2]) of the same molecule?
**A.** inhibited the consumption of NADPH in a concentration-dependent basis

**Q.** Which “binding to CapF by ITC” value ([1]; ITC, 25 °C) does the source give for `O=c1cccccc1` [tropone] here?
**A.** not detected

**Q.** What about the “inhibition of NADPH consumption” value (CapF [2]) of the same molecule?
**A.** did not significantly inhibit

**Q.** For NADPH, which Kd (CapF [3]) is on record?
**A.** 1.6 µM
